Test results taken from US20030148954A1, “Agents and methods for modulating activator protein-1-mediated cellular processes” (Wisconsin Alumni Research Foundation, priority 2001, published 2003).
Entries after “also recorded” stand apart in the source; their conditions may differ.

Tests used:
AP-1 [1] = experiment: AP-1 luciferase reporter, transient transfection of K562 cells; assay type: cell-based, human
Source text: (§1) Plasmids—The pBabe-NIC-1 (pNIC-1) expression vector encoding constitutively active Notch-1 (NIC-1) was described previously (36,37,51). This vector was derived from the pBabe-puro retroviral vector and includes a cDNA sequence encoding amino acids 1759-2556 of human Notch-1 with a Myc tag fused to its carboxyl terminus. Human NIC-1 deletion mutants were generated by PCR using a full-length human Notch-1 expression vector as the template. The Notch-dependent reporter plasmid containing four CBF1 binding sites and an simian virus 40 promoter fused to luciferase (p4×CBF1luc) was described previously (52). The AP-1 reporter plasmid (p1×AP1luc) containing a collagenase promoter fragment (−73/+67) with a single AP-1 binding site in the luciferase reporter vector pGL2-basic (Promega) was described previously (53). The NF-κB reporter plasmid (p3×κBluc) containing three NF-κB binding sites and a minimal promoter fused to luciferase was a kind gift of Dr. Shigeki Miyamoto (University of Wisconsin Medical School). The pBabe-H-Ras(12V) expression vector encoding constitutively active H-Ras was a kind gift of Dr. Charming Der (University of North Carolina-Chapel Hill). This vector was derived from the pBabe-puro retroviral vector and includes a cDNA encoding H-Ras with a Gly to Val mutation at amino acid 12.
(§2) Transient Transfections—K562 cells (5×10^5) were collected by centrifugation at 240×g for 8 min at 4° C. and resuspended in 4 ml of complete IMEM. Plasmid DNAs (1 μg of reporter and 2 μg of effector) were added to 150 μl of IMEM, incubated with Superfect (4 μl/1 μg DNA; Qiagen) for 10 min at room temperature and then added to cells.
For each transfection, cells were incubated for 26 h after transfection and then treated with TPA (final concentration: 5 nM) or the vehicle (DMSO). After incubating for another 12 or 16 h, cells were harvested and assayed for luciferase activity. Luciferase activity was normalized by the protein content of the lysates, determined by Bradford assay using γ-globulin as a standard.

CSL (CBF1) [2] = experiment: CSL-dependent (p4×CBF1luc) luciferase reporter, transient transfection of K562 cells; assay type: cell-based, human
Source text: as §1, with “The pBabe-H-Ras(12V) expression vector encoding constitutively active H-Ras was a kind gift of Dr. Charming Der (University of North Carolina-Chapel Hill). This vector was derived from the pBabe-puro retroviral vector and includes a cDNA encoding H-Ras with a Gly to Val mutation at amino acid 12.” left out
(§3) For each transfection, cells were incubated for 26 h after transfection and then treated with TPA (final concentration: 5 nM) or the vehicle (DMSO). […] Luciferase activity was normalized by the protein content of the lysates, determined by Bradford assay using γ-globulin as a standard.

CMV enhancer = experiment: pCMVβgal β-galactosidase reporter, transient transfection of K562 cells; assay type: cell-based, human
Description: as §2, §3

NF-κB = NF-κB luciferase reporter (p3×κBluc), transient transfection of K562 cells; assay type: cell-based, human; details: TPA
Source text: as §1, with “The pBabe-H-Ras(12V) expression vector encoding constitutively active H-Ras was a kind gift of Dr. Charming Der (University of North Carolina-Chapel Hill). This vector was derived from the pBabe-puro retroviral vector and includes a cDNA encoding H-Ras with a Gly to Val mutation at amino acid 12.” left out
as §3

AP-1 [3] = experiment: EMSA of AP-1 DNA binding activity in nuclear extracts; parameters: species or system human; details: 5 nM TPA 2 hours, nuclear extracts
Description: K562-Babe and K562-NIC-1 cells were harvested by centrifugation for 10 min at 150×g. Cells were washed once with ice-cold PBS and resuspended in 1.5 volumes of nuclei lysis buffer (10 mM Tris-HCl, pH 7.5, 10 mM NaCl, 3 mM MgCl2, and 0.2% Nonidet P-40) on ice for 3 min. Nuclei were collected by centrifugation for 5 min at 600×g. Nuclei were washed by gentle resuspension in 1.5 volumes of nuclei wash buffer (10 mM Tris-HCl, pH 7.5, 10 mM NaCl, and 3 mM MgCl2) and then collected by centrifugation for 4 min at 600×g. […] Nuclei were extracted for 45 min at 4° C. with constant mixing. The suspension was then centrifuged for 30 min at 150,000×g. Aliquots of the supernatant were frozen on dry ice and stored at -80° C. The protein concentration as measured by the Bradford assay, with y-globulin as a standard ranged from 4 to 10 mg/ml. DTT (5 mM), phenylmethanesulfonyl fluoride (0.5 mM), leupeptin (20 μg/ml), β-glycerophosphate (800 μM), sodium vanadate (1 mM), and sodium molybdate (50 μM) were included in all buffers. Electrophoretic Mobility Shift Assay-EMSA assays were done as described previously (54). AP-1 DNA binding activity was measured by EMSA with a double-stranded end-labeled oligonucleotide [NT] containing a high affinity AP-1 binding site. […] DNA binding activity was quantitated by PhosphorImager analysis with ImageQuant software (Molecular Dynamics).

CSL (CBF1) [4] = experiment: CSL-dependent luciferase reporter, transient transfection of HeLa cells; assay type: cell-based, human
Source text: as §1, with “The pBabe-H-Ras(12V) expression vector encoding constitutively active H-Ras was a kind gift of Dr. Charming Der (University of North Carolina-Chapel Hill). This vector was derived from the pBabe-puro retroviral vector and includes a cDNA encoding H-Ras with a Gly to Val mutation at amino acid 12.” left out
as §3

**Q.** For “NIC-1: constitutively active Notch-1 intracellular domain, amino acids 1759-2556 of human Notch-1 with carboxyl-terminal Myc tag, expressed from pBabe-NIC-1”, which “component of TPA-induced AP-1 reporter activity insensitive to NIC-1” value (AP-1 [1]; K562, both AP-1 reporters) is on record?
**A.** The value was about 30%.

**Q.** And the “inhibition of H-Ras(12V)-activated AP-1 reporter activity” value (AP-1 [1]; K562, cotransfected pBabe-H-Ras(12V))?
**A.** The value was “almost completely inhibited; also recorded: completely inhibits”.

**Q.** And the “concentration response curve for AP-1 repression relative to CSL-dependent activation” value (AP-1 [1]; K562, increasing amounts of NIC-1 expression vector, TPA 5 nM 12 h)?
**A.** The value was “slightly shifted to the left”.

**Q.** What about the “repression of TPA-induced AP-1 reporter activity” value (AP-1 [1]; K562, p1×AP1luc, TPA 5 nM 12 or 16 h) of the same substance?
**A.** Its value is “repressed”.

**Q.** What about the “degree of repression of AP-1 reporter with tandem AP-1 binding sites upstream of a β-globin promoter” value (AP-1 [1]; K562, pβ106(AP1)2luc, TPA) of the same substance?
**A.** Its value is “comparable to that seen with the MMP1 promoter”.

**Q.** What about the “inhibition of TPA-inducible AP-1 activity” value (AP-1 [1]; K562, range of TPA concentrations, 16 h) of the same substance?
**A.** Its value is 70%.

**Q.** What about the “activation of CSL-dependent reporter activity” value (CSL (CBF1) [2]) of the same substance?
**A.** The value was “strongly activated”.

**Q.** And the “increase of TPA induced activity of pCMVβgal” value (CMV enhancer; K562, TPA induced)?
**A.** Its value is about 2 fold.

**Q.** What about the “effect on basal activity of pCMVβgal” value (CMV enhancer; K562, basal) of the same substance?
**A.** Its value is “no effect”.

**Q.** What about the “effect on TPA-induced NF-κB-dependent reporter activity” value (NF-κB) of the same substance?
**A.** Its value is “no effect”.

**Q.** And the “AP-1 complexes formed with extracts from K562-NIC-1 versus K562-Babe cells” value (AP-1 [3])?
**A.** The value was “no apparent qualitative or quantitative differences”.

**Q.** What about the “activation of CSL-dependent reporter activity” value (CSL (CBF1) [4]) of the same substance?
**A.** Its value is “strongly activated”.
